The subject of the test is annual sugar beet variety (SLC03). The experiment in a line: Plant growth regulator activity, postemergence. The format is in vivo. The following applies: Beta vulgaris, post-emergence, 672 h, 4 weeks after spraying; read-out: Bolting Inhibition (postemergence), concentration with observed effect. The text has this:
Using a regular biennial variety, even a bolting-susceptible variety would require a cold treatment of around 10-16 weeks plus a hormone treatement in conjunction with specific light intensities. Thus, for a screening organism, we selected one which would consistently produce bolting on a regular schedule. The screen is run with an annual sugar beet variety (SLC03) provided by Dr. Richard J. Hecker, Fort Collins, Colo. This variety is an inbred which bolts in the 6- to 8-leaf stage without any need for vernalization. This allows the screen to be run entirely in the greenhouse with all 110 chemical compounds tested on one tray. The sugarbeets are grown in 3×3 inch square pots in a greenhouse sandy loam potting mix. The sugarbeets are sprayed with test compounds when they are 2 to 3 weeks old (2 true leaves). The compounds are dissolved in acetone and diluted with water containing Tween 20 as a wetting agent. The concentration of acetone in the final spray is 20% and the concentration of Tween 20 is 0.05 percent. The plants are examined for the appearance of a bolt 4 weeks after spraying.

With `Cc1cc(C)n2nc(S(=O)(=O)Nc3ccccc3F)nc2n1` [Compound 8], the minimal effective concentration amounted to 50 µg/mL.
